Paper PMC10846744, “Cathelicidin peptide analogues inhibit EV71 infection through blocking viral entry and uncoating” (PLOS Pathogens, 2024)
Where no end group is shown, it is not given here.

Columns and labels:
EV71 virus = experiment: Time-of-addition study; type: cell-based, enterovirus 71 (EV71)
Experimental: Fig 2 LL-18 and FF-18 inhibit EV71 infection at the early stages of infection. (A-B) NanoLuc-EV71 reporter virus (A) or EV71 virus (MOI = 1, B) was pre-incubated with 1.5 μM LL-18 or FF-18 for 1 hr before they were used to infect RD cells. Luciferase (A) or viral RNA (B) was determined at indicated time points. Viral RNAs were normalized to mock treated cells at 1 h.p.i. ***, P<0.001. (C-E) EV71 virus (MOI = 1) was either pre-incubated with 1.5 μM LL-18 before infection (-2 and -1 time points), added simultaneously with LL-18 (0 time point) or LL-18 was added at indicated time points post-infection (1, 2, 4, 7 time points) and viral VP1 expression (C), cell viability (D), or viral titer (E) was determined 24 h.p.i. ns, not significant; **, P<0.01; ***, P<0.001. (F-H) EV71 virus (MOI = 1) was either pre-incubated with 1.5 μM FF-18 before infection (-2 and -1 time points), added simultaneously with FF-18 (0 time point) or FF-18 was added at indicated time points post-infection (1, 2, 4, 7 time points) and viral VP1 expression (F), cell viability (G), or viral titer (H) was determined 24 h.p.i. ns, not significant; **, P<0.01; ***, P<0.001.
Synthetic peptides were purchased from Bioyears Co. Ltd. (Wuhan, China) with purity of more than 95% and dissolved in PBS. […] Cell viability, viral titer, or viral protein expression was determined 24 h.p.i. […]

[1] = system: EV71 virus-SCARB2 interaction; experiment: Virus-SCARB2 co-immunoprecipitation competition; type: binding; details: SCARB2-Flag 293T lysates incubated with EV71 virus with or without compound, anti-Flag IP, anti-VP1 immunoblotting
Experimental: Fig 5 LL-18 interferes with virus-SCARB2 interaction. (A) Molecular docking model of LL-18 with EV71 virion. […] The amino acid residues of capsid protein interacting with both LL-18 and SCARB2 are indicated (right panel). (B) 293T cells expressing SCARB2-Flag were lysed and cell lysates were incubated with EV71 virus in the absence or presence of the indicated amount of LL-18. Cell lysates were then immunoprecipitated with anti-Flag antibody and the precipitated virus was determined with anti-VP1 antibody. (C) 293T cells expressing Annexin 2-Flag were lysed and cell lysates were incubated with EV71 virus in the absence or presence of LL-18. Cell lysates were then immunoprecipitated with anti-Flag antibody and the precipitated virus was determined with anti-VP1 antibody.
Coimmunoprecipitation was performed as previously described. Briefly, VP1, VP2, and VP3 were PCR amplified and cloned into pcDNA3.1 with an HA tag. LL-18 or LL-37 encoding oligonucleotides were inserted into an eGFP-expressing construct (pHW200-eGFP). […] After washing with wash buffer (0.05% Triton X-100) six times, samples were analyzed by Western blotting.
Supplementary file ppat.1011967.s004.tif: S4 Fig Compound 12s interferes with virus-SCARB2 interaction. […] Cell lysates were then immunoprecipitated with anti-Flag antibody and the precipitated virus was determined with anti-VP1 antibody. […]

EV71 virions = experiment: Viral particle stability thermal release assay (PaSTRY); design: species or system enterovirus 71 (EV71); details: EV71 MOI = 10 pre-incubated with LL-18 or NaCl, SYBR green II, heated 25°C to 80°C; PBS control around 45°C
Experimental: Fig 6 LL-18 stabilizes the viral particles by inhibiting uncoating. (A) EV71 virus (MOI = 10) was pre-incubated with PBS, indicated amount of LL-18 or NaCl for 1 hr and then mixed with SYBR green dyes II before they were heated to indicated temperatures. The fluorescent signals were measured and plotted against temperature. PBS was used as a negative control. (B) EV71 virus (MOI = 10) was pre-incubated with PBS, LL-18, or 12s for 2 hrs. Half of the samples were then treated with 1.5 μg SCARB2 protein and incubated at 37°C for 2 hrs at pH 5.5. Samples were then subjected to ultracentrifugation as detailed in materials and methods. The numbers above represent the fractions collected from top to bottom.
EV71 viruses were preincubated with either PBS, NaCl or the indicated amount of LL-18 at room temperature for 2 hrs, before Sybr green II dye (3× working concentration, Solarbio, China) and RNase inhibitor (1 U/μL, Thermo Scientific) were added. The mixture was heated from 25°C to 80°C with an increment of 0.5°C for 30 seconds, and the fluorescence from SYBR green was monitored with a QuantGene 9600 real-time PCR system (Bioer, China).

[2] = system: mouse-adapted EV71 (mEV71); experiment: mEV71 infection inhibition in RD cells; type: cell-based, enterovirus 71 (EV71); details: mEV71 pre-incubated with LL-18 1 hr, titer 24 h.p.i (S5B Fig)
Experimental: Supplementary file ppat.1011967.s005.tif: S5 Fig LL-18 inhibits mEV71 infection in vivo. (A) 6-day-old ICR mice were infected with parental EV71 or mouse-adapted virus (mEV71) and the mice survival rate was determined. (B) RD cells infected with mEV71 pre-incubated with PBS or LL-18 for 1 hr were determined for virus titer 24 h.p.i. ***, P<0.001. (C) ICR mice infected with mEV71 or mEV71 pre-incubated with the indicated amount of LL-18 were sacrificed at 1 d.p.i. and viral titers from muscle were determined. ns, not significant; ***, P<0.001. (TIF) Click here for additional data file.

FRKSKEKIGKLFKRIVQRILDFLRNLV [LL-18]
inhibition of VP1 expression, virus-induced cell death, virus titer; peptide added after virus infection (EV71 virus): little inhibition
inhibition of VP1 expression, virus-induced cell death, virus titer; peptide added before virus infection (EV71 virus): Potent inhibition
inhibition of EV71 virus binding to SCARB2 [1]: inhibit virus binding to SCARB2 in a dose-dependent manner
temperature of peak SYBR green fluorescence intensity (RNA release) (EV71 virions): 53 °C
inhibition of mEV71 infection in RD cells (virus titer) [2]: could still inhibit the infection of this mEV71 strain in RD cells
